Results as given in US10851083B2, “Benzoimidazoles as prolyl hydroxylase inhibitors” (Janssen Pharmaceutica NV, priority 2008, dated 2020).

What was measured:
human PHD2181-417 = human PHD2181-417 (Homo sapiens (Human), UniProt Q9GZT9); assay: PHD2 enzyme activity assay ([14C]-succinic acid production); type: biochemical; conditions: PHD2181-417 polypeptide, HIF-1α peptide 10 μM, [5-14C]-2-oxoglutaric acid; 30 min pre-incubation; tested 10 μM to 3 nM;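 further: reaction ran 10 min with compound in Tris pH 7.5 buffer with catalase, DTT and ascorbate, labelled succinate freed of leftover 2-oxoglutarate by DNP precipitation, then beta counted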
Chain of human PHD2181-417 (Q9GZT9 181-417): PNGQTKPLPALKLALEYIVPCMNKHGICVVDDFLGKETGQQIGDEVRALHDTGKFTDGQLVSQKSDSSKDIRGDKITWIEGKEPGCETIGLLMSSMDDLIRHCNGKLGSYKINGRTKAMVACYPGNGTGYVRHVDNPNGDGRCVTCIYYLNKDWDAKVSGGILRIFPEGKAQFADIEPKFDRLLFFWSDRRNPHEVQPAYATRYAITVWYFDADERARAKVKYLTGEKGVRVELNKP

Hep-3B cells = assay: Cellular assay: EPO secretion in Hep-3B cells; type: cell-based, human; set-up: EPO secretion, % of control compound: dose or concentration left out as unconfirmed; conditions: Homo sapiens, Hep3B, 24 h, EPO secretion as percentage of control compound 7-[(4-Chloro-phenyl)-(5-methyl-isoxazol-3-ylamino)-methyl]-quinolin-8-ol, read-out: Cellular % EPO Stimulation

Compound	Enzyme pIC50 (human PHD2181-417)	EPO secretion, % of control compound (Hep-3B cells)
O=C(O)c1cnn(-c2nc3cc(S(=O)(=O)Nc4ccccc4)c(Cl)cc3[nH]2)c1 [Example 186, 1-(6-Chloro-5-phenylsulfamoyl-1H-benzoimidazol-2-yl)-1H-pyrazole-4-carboxylic Acid]	7.4	39.1%
O=C(O)c1cnn(-c2nc3cc(Br)cc(F)c3[nH]2)c1 [Example 48, 1-(5-Bromo-7-fluoro-1H-benzoimidazol-2-yl)-1H-pyrazole-4-carboxylic Acid]	6.3	44%
O=C(O)c1cnn(-c2nc3cc(S(=O)(=O)Cc4c(Cl)cccc4Cl)c(Cl)cc3[nH]2)c1 [Example 177, 1-[6-Chloro-5-(2,6-dichloro-phenylmethanesulfonyl)-1H-benzoimidazol-2-yl]-1H-pyrazole-4-carboxylic Acid]	7.5	66.6%
Cc1cccc(S(=O)(=O)c2cc3nc(-n4cc(C(=O)O)cn4)[nH]c3cc2Cl)c1 [Example 82, 1-[6-Chloro-5-(toluene-3-sulfonyl)-1H-benzoimidazol-2-yl]-1H-pyrazole-4-carboxylic Acid]	7.4	85.3%
O=C(O)c1cnn(-c2nc3cc(SCCc4ccccc4)c(Cl)cc3[nH]2)c1 [Example 70, 1-(6-Chloro-5-phenethylsulfanyl-1H-benzoimidazol-2-yl)-1H-pyrazole-4-carboxylic Acid]	6.7	74.2%
O=C(O)c1cnn(-c2nc3cc(S(=O)(=O)Cc4ccc(Cl)c(Cl)c4)c(Cl)cc3[nH]2)c1 [Example 176, 1-[6-Chloro-5-(3,4-dichloro-phenylmethanesulfonyl)-1H-benzoimidazol-2-yl]-1H-pyrazole-4-carboxylic Acid]	7.6	44.2%
O=C(O)c1cnn(-c2nc3cc(SCc4ccc(Cl)c(Cl)c4)c(Cl)cc3[nH]2)c1 [Example 167, 1-[6-Chloro-5-(3,4-dichloro-benzylsulfanyl)-1H-benzoimidazol-2-yl]-1H-pyrazole-4-carboxylic Acid]	6.4	25.8%
O=C(O)c1cnn(-c2nc3cc(Sc4ccccc4)c(Cl)cc3[nH]2)c1 [Example 62, 1-(6-Chloro-5-phenylsulfanyl-1H-benzoimidazol-2-yl)-1H-pyrazole-4-carboxylic Acid]	6.75	45.8%
Cc1ccc(CS(=O)(=O)c2cc3nc(-n4cc(C(=O)O)cn4)[nH]c3cc2Cl)cc1 [Example 178, 1-(6-Chloro-5-p-tolylmethanesulfonyl-1H-benzoimidazol-2-yl)-1H-pyrazole-4-carboxylic Acid]	7.7	–
CCCS(=O)(=O)c1cc2nc(-n3cc(C(=O)O)cn3)[nH]c2cc1F [Example 157, 1-(6-Fluoro-5-propylsulfonyl-1H-benzoimidazol-2-yl)-1H-pyrazole-4-carboxylic Acid]	7.4	–
O=C(O)c1cnn(-c2nc3cc(S(=O)(=O)Cc4ccc(C(F)(F)F)cc4)c(Cl)cc3[nH]2)c1 [Example 179, 1-[6-Chloro-5-(4-trifluoromethyl-phenylmethanesulfonyl)-1H-benzoimidazol-2-yl]-1H-pyrazole-4-carboxylic Acid]	7.7	–

The next lines start with results.

Enzyme pIC50 (human PHD2181-417)	Compound	EPO secretion, % of control compound (Hep-3B cells)
6.5	O=C(O)c1cnn(-c2nc3cc(N4CCCCC4)c(OC(F)(F)F)cc3[nH]2)c1 [Example 117, 1-(5-Piperidin-1-yl-6-trifluoromethoxy-1H-benzoimidazol-2-yl)-1H-pyrazole-4-carboxylic Acid]	80%
7.3	O=C(O)c1cnn(-c2nc3cc(S(=O)(=O)c4ccc(OC(F)(F)F)cc4)c(Cl)cc3[nH]2)c1 [Example 86, 1-[6-Chloro-5-(4-trifluoromethoxy-benzenesulfonyl)-1H-benzoimidazol-2-yl]-1H-pyrazole-4-carboxylic Acid]	48.9%
6.4	O=C(O)c1cnn(-c2nc3cc(Cl)cc(C(F)(F)F)c3[nH]2)c1 [Example 28, 1-(5-Chloro-7-trifluoromethyl-1H-benzoimidazol-2-yl)-1H-pyrazole-4-carboxylic Acid]	16.6%
7.4	O=C(O)c1cnn(-c2nc3cc(C(F)(F)F)c(C(F)(F)F)cc3[nH]2)c1 [Example 126, 1-(5,6-Bis-trifluoromethyl-1H-benzoimidazol-2-yl)-1H-pyrazole-4-carboxylic Acid]	82.7%
7.5	O=C(O)c1cnn(-c2nc3cc(Oc4ccc(Cl)cc4)c(C(F)(F)F)cc3[nH]2)c1 [Example 55, 1-[5-(4-Chloro-phenoxy)-6-trifluoromethyl-1H-benzoimidazol-2-yl]-1H-pyrazole-4-carboxylic Acid]	44.2%
7.4	O=C(O)c1cnn(-c2nc3cc(Oc4ccc(OC(F)(F)F)cc4)c(Cl)cc3[nH]2)c1 [Example 147, 1-[6-Chloro-5-(4-trifluoromethoxy-phenoxy)-1H-benzoimidazol-2-yl]-1H-pyrazole-4-carboxylic Acid]	45.9%
7	O=C(O)c1cnn(-c2nc3c(F)c(F)c(F)cc3[nH]2)c1 [Example 31, 1-(4,5,6-Trifluoro-1H-benzoimidazol-2-yl)-1H-pyrazole-4-carboxylic Acid]	18.2%
6.9	CSc1cc2[nH]c(-n3cc(C(=O)O)cn3)nc2cc1F [Example 74, 1-(5-Fluoro-6-methylsulfanyl-1H-benzoimidazol-2-yl)-1H-pyrazole-4-carboxylic Acid]	77.8%
7.4	O=C(O)c1cnn(-c2nc3cc(Oc4ccc(Cl)cc4)c(OC(F)(F)F)cc3[nH]2)c1 [Example 52, 1-[5-(4-Chloro-phenoxy)-6-trifluoromethoxy-1H-benzoimidazol-2-yl]-1H-pyrazole-4-carboxylic Acid]	21.6%
7.4	O=C(O)c1cnn(-c2nc3cc(Oc4ccc(Cl)c(Cl)c4)c(C(F)(F)F)cc3[nH]2)c1 [Example 50, 1-[5-(3,4-Dichloro-phenoxy)-6-trifluoromethyl-1H-benzoimidazol-2-yl]-1H-pyrazole-4-carboxylic Acid]	18%
7.2	O=C(O)c1cnn(-c2nc3cc(Oc4ccccc4)c(OC(F)(F)F)cc3[nH]2)c1 [Example 53, 1-(5-Phenoxy-6-trifluoromethoxy-1H-benzoimidazol-2-yl)-1H-pyrazole-4-carboxylic Acid]	138%
7	CC(C)Sc1cc2[nH]c(-n3cc(C(=O)O)cn3)nc2cc1OC(F)(F)F [Example 80, 1-(6-Isopropylsulfanyl-5-trifluoromethoxy-1H-benzoimidazol-2-yl)-1H-pyrazole-4-carboxylic Acid]	–
6.7	O=C(O)c1cnn(-c2nc3cc(SCc4ccc(C(F)(F)F)cc4)c(Cl)cc3[nH]2)c1 [Example 170, 1-[6-Chloro-5-(4-trifluoromethyl-benzylsulfanyl)-1H-benzoimidazol-2-yl]-1H-pyrazole-4-carboxylic Acid]	–
6.9	CC(C)Sc1cc2nc(-n3cc(C(=O)O)cn3)[nH]c2cc1F [Example 153, 1-(6-Fluoro-5-isopropylsulfanyl-1H-benzoimidazol-2-yl)-1H-pyrazole-4-carboxylic Acid]	–
